The results in this text go back to patent publication US20200010482A1, “INHIBITORS OF BETA SECRETASE” (Janssen Pharmaceutica NV, priority 2017, published 2020).

The target in one assay is T1, BACE1 (Homo sapiens, UniProt P56817).
T1 construct: recombinant BACE1 protein in a final concentration of 0.04 μg/ml
Kind of assay: BACE1 biochemical FRET based assay. The note with it: recombinant BACE1 0.04 μg/ml, 20 μM substrate, 450 min, pH 5.0; for IC50: read-out: BIOCHEMICAL FRET BASED ASSAY pIC50 (converted). The text has this: (§1) This assay is a Fluorescence Resonance Energy Transfer Assay (FRET) based assay. The substrate for this assay is an APP derived 13 amino acids peptide that contains the ‘Swedish’ Lys-Met/Asn-Leu mutation of the amyloid precursor protein (APP) beta-secretase cleavage site. This substrate also contains two fluorophores: (7-methoxycoumarin-4-yl) acetic acid (Mca) is a fluorescent donor with excitation wavelength at 320 nm and emission at 405 nm and 2,4-Dinitrophenyl (Dnp) is a proprietary quencher acceptor. […] Upon cleavage by BACE1, the fluorophore Mca is separated from the quenching group Dnp, restoring the full fluorescence yield of the donor. The increase in fluorescence is linearly related to the rate of proteolysis.
Briefly in a 384-well format recombinant BACE1 protein in a final concentration of 0.04 μg/ml is incubated for 450 minutes at room temperature with 20 μM substrate in incubation buffer (50 mM Citrate buffer pH 5.0, 0.05% PEG) in the presence of compound or DMSO. Next the amount of proteolysis is directly measured by fluorescence measurement (excitation at 320 nm and emission at 405 nm) at different incubation times (0, 30, 60, 90, 120 and 450 min). For every experiment a time curve (every 30 min between 0 min and 120 min) is used to determine the time where we find the lowest basal signal of the high control. The signal at this time (Tx) is used to subtract from the signal at 450 min. Results are expressed in RFU, as difference between T450 and Tx.
(§2) A best-fit curve is fitted by a minimum sum of squares method to the plot of % Controlmin versus compound concentration. From this an IC50 value (inhibitory concentration causing 50% inhibition of activity) can be obtained. • LC=Median of the low control values=Low control: Reaction without enzyme • HC=Median of the High control values=High Control: Reaction with enzyme
(§3) % Effect=100−[(sample−LC)/(HC−LC)*100]
(§4) % Control=(sample/HC)*100
(§5) % Controlmin=(sample−LC)/(HC−LC)*100

Assay [1] has as its system Abeta total produced and secreted by SKNBE2 cells expressing hAPP695. Put plainly: Cellular αLisa assay in SKNBE2 cells, Abeta total. The note with it: SKNBE2 cells expressing hAPP695, 18 hours incubation; for IC50: Homo sapiens, SKNBE2, 18 h, read-out: CELLULAR αLISA ASSAY IN SKNBE2 CELLS ABETA TOTAL pIC50 (converted). The format is cell-based, human. The method, then:
(§6) In two αLisa assays the levels of Abeta total and Abeta 1-42 produced and secreted into the medium of human neuroblastoma SKNBE2 cells are quantified. The assay is based on the human neuroblastoma SKNBE2 expressing the wild type Amyloid Precursor Protein (hAPP695). The compounds are diluted and added to these cells, incubated for 18 hours and then measurements of Abeta 1-42 and Abeta total are taken. Abeta total and Abeta 1-42 are measured by sandwich αLisa. αLisa is a sandwich assay using biotinylated antibody AbN/25 attached to streptavidin coated beads and antibody Ab4G8 or cAb42/26 conjugated acceptor beads for the detection of Abeta total and Abeta 1-42 respectively. In the presence of Abeta total or Abeta 1-42, the beads come into close proximity. The excitation of the donor beads provokes the release of singlet oxygen molecules that trigger a cascade of energy transfer in the acceptor beads, resulting in light emission. Light emission is measured after 1 hour incubation (excitation at […] and emission at 615 nm).
(§7) A best-fit curve is fitted by a minimum sum of squares method to the plot of % Controlmin versus compound concentration. From this an IC50 value (inhibitory concentration causing 50% inhibition of activity) can be obtained. • LC=Median of the low control values=Low control: cells preincubated without compound, without biotinylated Ab in the αLisa • HC=Median of the High control values=High Control: cells preincubated without compound
as §3, §4, §5

Assay [2] concerns Abeta 1-42 produced and secreted by SKNBE2 cells expressing hAPP695. Put plainly: Cellular αLisa assay in SKNBE2 cells, Abeta 1-42. It is filed as cell-based, human. The note with it: SKNBE2 cells expressing hAPP695, 18 hours incubation; for IC50: Homo sapiens, SKNBE2, 18 h, read-out: CELLULAR αLISA ASSAY IN SKNBE2 CELLS ABETA 42 PIC50 (converted). The method, then: as §6, §7, §3, §4, §5

In another assay the target is T2, BACE2 (Homo sapiens, UniProt Q9Y5Z0).
T2 construct: recombinant BACE2 protein in a final concentration of 0.4 μg/ml
T2 sequence (Q9Y5Z0 63-518): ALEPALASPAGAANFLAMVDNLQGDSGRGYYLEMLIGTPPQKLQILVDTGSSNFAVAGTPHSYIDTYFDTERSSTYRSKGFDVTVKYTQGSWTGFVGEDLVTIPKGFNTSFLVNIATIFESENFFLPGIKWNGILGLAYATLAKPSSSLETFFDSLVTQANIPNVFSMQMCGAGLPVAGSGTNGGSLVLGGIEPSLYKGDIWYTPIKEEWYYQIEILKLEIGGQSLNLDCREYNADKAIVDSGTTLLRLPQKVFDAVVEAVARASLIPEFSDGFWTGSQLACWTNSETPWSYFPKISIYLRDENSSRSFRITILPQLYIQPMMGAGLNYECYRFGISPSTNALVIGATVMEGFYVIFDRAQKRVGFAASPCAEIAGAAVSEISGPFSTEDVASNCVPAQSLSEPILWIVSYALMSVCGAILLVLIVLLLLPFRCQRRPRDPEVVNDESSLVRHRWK
Kind of assay: BACE2 biochemical FRET based assay. The note with it: recombinant BACE2 0.4 μg/ml, 10 μM substrate, 450 min, pH 5.0; for IC50: read-out: BIOCHEMICAL FRET BASED ASSAY pIC50 (converted).
Text: as §1, with “assay” for “assay is an APP derived 13 amino acids peptide that”, “the beta-secretase,” for “BACE1,”
Briefly in a 384-well format recombinant BACE2 protein in a final concentration of 0.4 μg/ml is incubated for 450 minutes at room temperature with 10 μM substrate in incubation buffer (50 mM Citrate buffer pH 5.0, 0.05% PEG, no DMSO) in the absence or presence of compound. Next the amount of proteolysis is directly measured by fluorescence measurement at T=0 and T=450 (excitation at 320 nm and emission at 405 nm). Results are expressed in RFU (Relative Fluorescence Units), as difference between T450 and TO.
as §2, §3, §4, §5

Bounds are passed on as bounds.

T1 sequence (P56817 46-501): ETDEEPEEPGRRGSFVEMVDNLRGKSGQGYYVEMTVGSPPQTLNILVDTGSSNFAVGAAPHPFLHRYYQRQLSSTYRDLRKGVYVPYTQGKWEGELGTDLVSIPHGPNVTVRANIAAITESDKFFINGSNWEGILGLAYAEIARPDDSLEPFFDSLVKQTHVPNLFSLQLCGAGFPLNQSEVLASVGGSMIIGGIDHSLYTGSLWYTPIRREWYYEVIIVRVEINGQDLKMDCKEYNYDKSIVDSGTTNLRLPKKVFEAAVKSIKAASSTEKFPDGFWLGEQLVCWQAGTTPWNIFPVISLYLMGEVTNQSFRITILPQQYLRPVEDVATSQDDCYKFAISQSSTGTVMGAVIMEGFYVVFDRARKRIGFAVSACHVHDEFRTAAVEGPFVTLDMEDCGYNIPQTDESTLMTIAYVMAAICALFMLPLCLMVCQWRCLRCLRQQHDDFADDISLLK

As for `COc1ncc(-c2cnccc2C)c2c1C[C@@]1(c3cc(-c4cncnc4)ccc3F)N=C(N)SC[C@H]1C2` [Compound 193], the results for the “BIOCHEMICAL FRET BASED ASSAY pIC50” value at BACE1 and on BACE2 were 5.26 and less than 5, respectively. Further, in assay [1], the “CELLULAR αLISA ASSAY IN SKNBE2 CELLS ABETA TOTAL pIC50” value came to 5.9. Also, the “CELLULAR αLISA ASSAY IN SKNBE2 CELLS ABETA 42 PIC50” value in assay [2] was 6.01.
In the case of `COc1nccc2c1C[C@@]1(c3ccc(F)cc3F)N=C(N)SC[C@H]1C2` [Compound 182], the IC50 is 4790 nM at BACE1, 1320 nM in assay [1], 1290 nM in assay [2] and 6170 nM on BACE2.
`CCOc1ncc(C2CC2)c2c1CC1(c3ccc(F)cc3F)N=C(N)SCC1C2` (racemic) [Compound 21]: the IC50 on BACE1 is 135 nM; in assay [1] it was 302 nM; in assay [2], 355 nM; on BACE2, 97.7 nM.
For `COc1nccc2c1CC1(c3cc(O)ccc3F)N=C(N)SCC1C2` (racemic) [Compound 5], the IC50 at BACE1 is 162 nM; in assay [1], 32.4 nM; in assay [2] it was 26.3 nM; on BACE2, 63.1 nM.
In the case of `COc1ncc(Br)c2c1CC1(c3ccc(F)cc3F)N=C(N)SCC1C2` (racemic) [Compound 17], the IC50 at BACE1 is 30.9 nM; in assay [1] it was 145 nM; in assay [2], 132 nM; at BACE2, 67.6 nM.
The like results for `NC1=N[C@@]2(c3ccccc3F)Cc3c(cc[nH]c3=O)C[C@H]2CS1` (racemic) [Compound 3] were, in that order, 8710 nM, 4680 nM, 4070 nM and 9550 nM.
On to `COc1nccc2c1C[C@]1(c3ccccc3F)N=C(N)SC[C@@H]1C2` (racemic) [Compound 2], for which the IC50 on BACE1 was 158 nM; in assay [1], 46.8 nM; in assay [2], 53.7 nM; on BACE2, 174 nM.
For `CCOC(=O)c1cnc(OC)c2c1C[C@H]1CSC(N)=N[C@@]1(c1ccc(F)cc1F)C2` (racemic) [Compound 24], the IC50 on BACE1 is 13.8 nM; in assay [1], 6.61 nM; in assay [2], 6.92 nM; on BACE2, 12.3 nM.
Regarding `CCOc1nccc2c1CC1(c3ccc(F)cc3F)N=C(N)SCC1C2` (single isomer, unassigned) [Compound 195], the “BIOCHEMICAL FRET BASED ASSAY pIC50” value on BACE1 worked out at 6.9; on BACE2, 6.85. In addition, in assay [1], the “CELLULAR αLISA ASSAY IN SKNBE2 CELLS ABETA TOTAL pIC50” value stood at 7.09. Moreover, the “CELLULAR αLISA ASSAY IN SKNBE2 CELLS ABETA 42 PIC50” value in assay [2] amounted to 7.09.
On to `COc1ncc(-c2cccnc2)c2c1C[C@]1(c3ccc(F)cc3F)N=C(N)SC[C@@H]1C2` [Compound 87], for which the IC50 at BACE1 is 3.8 nM; in assay [1] it was 0.631 nM; in assay [2], 0.646 nM; on BACE2 it was 7.08 nM.
In the case of `COc1ncc(-c2cccnc2)c2c1C[C@]1(c3ccc(F)cc3F)N=C(N)SC[C@@H]1C2` (racemic) [Compound 25], the IC50 at BACE1 was 5.89 nM; in assay [1], 1.91 nM; in assay [2], 1.7 nM; on BACE2, 12 nM.
As for `COc1nccc2c1C[C@]1(c3ccc(F)cc3F)N=C(N)SC[C@@H]1C2` [Compound 35], the IC50 at BACE1 was 34.7 nM; in assay [1] it was 12 nM; in assay [2], 13.8 nM; at BACE2, 44.7 nM.
Consider `COc1ncc(Br)c2c1C[C@]1(c3cc(Oc4ccccn4)ccc3F)N=C(N)SC[C@@H]1C2` [Compound 137], for which the “BIOCHEMICAL FRET BASED ASSAY pIC50” value on BACE1 turned out to be 7.97; at BACE2, 7.72. Also, in assay [1], the “CELLULAR αLISA ASSAY IN SKNBE2 CELLS ABETA TOTAL pIC50” value was found to be 7.82. Moreover, the “CELLULAR αLISA ASSAY IN SKNBE2 CELLS ABETA 42 PIC50” value in assay [2] is 7.74.
Consider `COc1ncc(-c2ccccc2Cl)c2c1C[C@]1(c3ccc(F)cc3F)N=C(N)SC[C@@H]1C2` [Compound 52], for which the figures for the “BIOCHEMICAL FRET BASED ASSAY pIC50” value at BACE1 and on BACE2 were 8.38 and 7.35, respectively. Besides, the “CELLULAR αLISA ASSAY IN SKNBE2 CELLS ABETA TOTAL pIC50” value in assay [1] amounted to 7.88. Besides, in assay [2], the “CELLULAR αLISA ASSAY IN SKNBE2 CELLS ABETA 42 PIC50” value is given as 7.96.
On to `COc1ncc(-c2cnccc2C)c2c1CC1(c3ccc(Cl)cc3F)N=C(N)SCC1C2` (single isomer, unassigned) [Compound 200], for which the results for the IC50 on BACE1 and at BACE2 were 17.8 nM and 437 nM, respectively. Besides, the “CELLULAR αLISA ASSAY IN SKNBE2 CELLS ABETA TOTAL pIC50” value in assay [1] came out at 8.05. For the same compound, the “CELLULAR αLISA ASSAY IN SKNBE2 CELLS ABETA 42 PIC50” value in assay [2] stood at 8.09.
On to `COc1ncc(-c2cc(C#N)ccc2Cl)c2c1C[C@]1(c3ccc(F)cc3F)N=C(N)SC[C@@H]1C2` [Compound 53], for which the results for the “BIOCHEMICAL FRET BASED ASSAY pIC50” value at BACE1 and at BACE2 were 7.97 and 6.84, respectively. In assay [1], the “CELLULAR αLISA ASSAY IN SKNBE2 CELLS ABETA TOTAL pIC50” value was 7.9. Besides, in assay [2], the “CELLULAR αLISA ASSAY IN SKNBE2 CELLS ABETA 42 PIC50” value came to 7.84.
Regarding `COc1ncc(Oc2ccccn2)c2c1C[C@]1(c3ccc(F)cc3F)N=C(N)SC[C@@H]1C2` [Compound 135], the “BIOCHEMICAL FRET BASED ASSAY pIC50” value on BACE1 is given as 7.6; at BACE2 it was 7.55. For the same compound, the “CELLULAR αLISA ASSAY IN SKNBE2 CELLS ABETA TOTAL pIC50” value in assay [1] is reported as 7.62. Moreover, the “CELLULAR αLISA ASSAY IN SKNBE2 CELLS ABETA 42 PIC50” value in assay [2] is given as 7.6.
Take `COc1ncc(C#N)c2c1CC1(c3ccc(F)cc3F)N=C(N)SCC1C2` (racemic) [Compound 23]: the IC50 at BACE1 is 75.9 nM; in assay [1] it was 29.5 nM; in assay [2], 26.3 nM; on BACE2 it was 155 nM.
